± gives the standard deviation of the averaged measurements.
Legend:
Assay in all cases: level (log10 ratio to DMSO vehicle control); higher = higher biomarker level / cell amount than vehicle control
[1] = compound: CCOC(=O)CC(=O)C(F)(F)C(F)(F)F [Ethyl pentafluoropropionyl acetate] (in DMSO)
Method: (§1)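 BioMAP Diversity Plus panel of 12 human primary cell co-culture systems (3C, 4H, LPS, SAg, BT, BF4T, BE3C, CASM3C, HDF3CGF, KF3CT, MyoF, Mphg). Compounds were added 1 h before stimulation and left for 24 h (MyoF 48 h; BT 72 h for soluble read-outs or 6 d for IgG). Biomarkers were read by ELISA, cytotoxicity by SRB, PBMC viability and proliferation by Alamar Blue. Each well value was divided by the mean of 8 DMSO control wells on the same plate and log10 transformed; duplicate blinded samples were tested at 4 concentrations.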

[2] = compound: OCC(F)(F)OC(F)(F)C(F)(F)OC(F)(F)C(F)(F)OC(F)(F)CO [1H,1H,11H,11H-Perfluorotetraethylene glycol] (in DMSO)
Method: as §1

[3] = compound: O=S(=O)(O)C(F)(F)C(F)(F)C(F)(F)C(F)(F)C(F)(F)C(F)(F)C(F)(F)F [Perfluoroheptanesulfonic acid] (in DMSO)
Method: as §1

[4] = compound: O=C(O)C=C(C(F)(F)F)C(F)(F)F [3,3-Bis(trifluoromethyl)-2-propenoic acid] (in DMSO)
Method: as §1

[5] = compound: OCCC(F)(F)C(F)(F)C(F)(F)C(F)(F)F [4:2 Fluorotelomer alcohol] (in DMSO)
Method: as §1

Perfluoroundecanoic acid = compound: O=C(O)C(F)(F)C(F)(F)C(F)(F)C(F)(F)C(F)(F)C(F)(F)C(F)(F)C(F)(F)C(F)(F)C(F)(F)F [Perfluoroundecanoic acid] (in DMSO); settings: 6700 nM
Method: as §1

[6] = compound: O=S(=O)(O)CCC(F)(F)C(F)(F)C(F)(F)C(F)(F)C(F)(F)C(F)(F)C(F)(F)C(F)(F)F [8:2 Fluorotelomer sulfonic acid] (in DMSO)
Method: as §1

Row | Test System | level (log10) ([1]; 6700 nM) | level (log10) ([1]; 20000 nM) | level (log10) ([1]; 60000 nM) | level (log10) ([2]; 6700 nM) | level (log10) ([2]; 20000 nM) | level (log10) ([2]; 60000 nM) | level (log10) ([3]; 1500 nM) | level (log10) ([3]; 4400 nM) | level (log10) ([3]; 13000 nM) | level (log10) ([3]; 40000 nM) | level (log10) ([4]; 6700 nM) | level (log10) ([4]; 20000 nM) | level (log10) ([4]; 60000 nM) | level (log10) ([5]; 6700 nM) | level (log10) ([5]; 20000 nM) | level (log10) ([5]; 60000 nM) | level (log10) (Perfluoroundecanoic acid) | level (log10) ([6]; 6700 nM) | level (log10) ([6]; 20000 nM) | level (log10) ([6]; 60000 nM)
1 | CASM3C:Proliferation | -0.049 ± 0.04 | -0.014 ± 0.0085 | -0.0155 ± 0.00071 | -0.039 ± 0.079 | -0.039 ± 0.062 | -0.12 ± 0.03 | 0.0285 ± 0.0092 | -0.026 | -0.028 ± 0.016 | -0.034 ± 0.028 | -0.0475 ± 0.0035 | -0.0555 ± 0.015 | -0.177 ± 0.06 | 0.0185 ± 0.03 | 0.0335 ± 0.044 | 0.0185 ± 0.028 | 0.0285 ± 0.011 | 0.005 ± 0.072 | 0.0065 ± 0.022 | 0.0245 ± 0.023
2 | CASM3C:SRB | 0.0035 ± 0.0021 | 0.0015 ± 0.0035 | 0.002 ± 0.011 | -0.0025 ± 0.0064 | -0.008 ± 0.0057 | -0.0275 ± 0.012 | 0.004 ± 0.0057 | 0.0045 ± 0.00071 | -0.0075 ± 0.0035 | -0.011 ± 0.0014 | 0.0145 ± 0.016 | -0.0075 ± 0.0021 | -0.027 | 0.0045 ± 0.0035 | -0.008 | 0.0015 ± 0.0092 | 0.0025 ± 0.0035 | 0.0075 ± 0.005 | 0.0055 ± 0.005 | 0.0105 ± 0.0035
3 | CASM3C:Serum Amyloid A | 0.0005 ± 0.0035 | -0.012 ± 0.0014 | 0.0155 ± 0.029 | 0.0105 ± 0.0092 | -0.0065 ± 0.00071 | 0.002 ± 0.045 | 0.03 ± 0.051 | -0.027 ± 0.0028 | -0.0305 ± 0.032 | -0.013 ± 0.048 | -0.013 ± 0.021 | -0.0185 ± 0.0092 | -0.005 ± 0.038 | -0.081 ± 0.081 | -0.0345 ± 0.023 | -0.013 ± 0.1 | 0.014 ± 0.016 | 0.0195 ± 0.0064 | 0.0475 ± 0.025 | 0.096 ± 0.0042
4 | HDF3CGF:CCL2/MCP-1 | -0.022 ± 0.0042 | -0.0135 ± 0.005 | 0.009 ± 0.047 | -0.044 ± 0.031 | -0.073 ± 0.027 | -0.172 ± 0.067 | 0.006 | 0.0055 ± 0.0035 | 0.005 ± 0.014 | 0.021 ± 0.038 | -0.0775 ± 0.052 | -0.0935 ± 0.056 | -0.084 ± 0.028 | -0.0305 ± 0.08 | -0.043 ± 0.027 | -0.0315 ± 0.052 | -0.077 ± 0.042 | 0.0005 ± 0.022 | -0.008 ± 0.03 | 0.0115 ± 0.022
5 | HDF3CGF:CD54/ICAM-1 | 0.006 ± 0.017 | 0.0055 ± 0.0092 | -0.012 ± 0.034 | 0.0025 ± 0.018 | -0.019 ± 0.04 | -0.106 ± 0.091 | 0.0035 ± 0.035 | -0.007 ± 0.028 | 0.0075 ± 0.023 | -0.0165 ± 0.039 | 0.033 ± 0.035 | 0.032 ± 0.027 | 0.0555 ± 0.021 | -0.0095 ± 0.019 | -0.0255 ± 0.0035 | -0.0285 ± 0.005 | -0.0765 ± 0.00071 | -0.012 ± 0.017 | -0.04 ± 0.011 | -0.0805 ± 0.012
6 | HDF3CGF:CD106/VCAM-1 | 0.007 ± 0.011 | -0.0025 ± 0.005 | 0.006 ± 0.02 | -0.09 ± 0.0042 | -0.202 | -0.264 ± 0.044 | -0.0245 ± 0.039 | -0.024 ± 0.0042 | -0.0585 ± 0.0064 | -0.101 ± 0.0092 | -0.0485 ± 0.021 | -0.0795 ± 0.005 | -0.17 ± 0.013 | -0.023 ± 0.014 | 0.014 ± 0.035 | -0.062 ± 0.057 | -0.213 ± 0.044 | 0.0015 ± 0.091 | 0.007 ± 0.073 | -0.072 ± 0.045
7 | HDF3CGF:CXCL8/IL-8 | -0.005 ± 0.0028 | -0.0045 ± 0.011 | -0.002 ± 0.021 | 0.0015 ± 0.028 | -0.0025 ± 0.011 | 0.0115 ± 0.0064 | 0.0125 ± 0.005 | -0.0115 ± 0.005 | 0.008 ± 0.0042 | 0.0065 ± 0.026 | 0.008 ± 0.0014 | -0.001 | 0.022 ± 0.011 | -0.007 ± 0.0028 | -0.0105 ± 0.0064 | -0.002 ± 0.011 | 0.013 ± 0.0028 | -0.0145 ± 0.0064 | -0.0045 ± 0.0035 | -0.0015 ± 0.026
8 | HDF3CGF:CXCL9/MIG | 0.001 ± 0.0042 | -0.013 ± 0.0085 | -0.0185 ± 0.005 | -0.105 ± 0.011 | -0.283 ± 0.03 | -0.525 ± 0.14 | -0.0075 ± 0.019 | -0.008 ± 0.013 | -0.0275 ± 0.011 | -0.0505 ± 0.042 | -0.006 ± 0.0028 | -0.0075 ± 0.013 | -0.0175 ± 0.015 | -0.0335 ± 0.037 | -0.0065 ± 0.0064 | 0.01 ± 0.04 | -0.0645 ± 0.005 | -0.048 ± 0.034 | -0.0575 ± 0.04 | 0.061 ± 0.034
9 | HDF3CGF:CXCL10/IP-10 | -0.0125 ± 0.015 | -0.0105 ± 0.022 | -0.046 ± 0.0085 | -0.0435 ± 0.04 | -0.155 ± 0.013 | -0.418 ± 0.059 | 0.0115 ± 0.036 | -0.0195 ± 0.025 | -0.042 ± 0.042 | -0.0805 ± 0.00071 | -0.0175 ± 0.005 | -0.0445 ± 0.005 | -0.04 ± 0.025 | -0.0075 ± 0.025 | -0.002 ± 0.023 | -0.0095 ± 0.0035 | -0.144 ± 0.0092 | -0.014 ± 0.0014 | -0.0315 ± 0.0092 | -0.06 ± 0.016
10 | HDF3CGF:CXCL11/I-TAC | -0.0175 ± 0.029 | -0.026 ± 0.037 | -0.0425 ± 0.021 | -0.0395 ± 0.053 | -0.139 ± 0.077 | -0.319 ± 0.13 | -0.042 ± 0.054 | -0.001 ± 0.0099 | -0.035 ± 0.018 | -0.0525 ± 0.035 | -0.038 ± 0.011 | -0.0555 ± 0.035 | -0.033 ± 0.054 | -0.039 ± 0.035 | 0.011 ± 0.0014 | -0.0275 ± 0.029 | -0.062 ± 0.024 | -0.053 ± 0.027 | -0.0285 ± 0.03 | -0.0865 ± 0.067
11 | HDF3CGF:Collagen I | -0.0205 ± 0.021 | -0.003 ± 0.051 | -0.0355 ± 0.0092 | -0.021 ± 0.065 | -0.0405 ± 0.053 | -0.116 ± 0.0057 | -0.0005 ± 0.011 | -0.0075 ± 0.021 | -0.0105 ± 0.025 | 0.021 ± 0.075 | -0.031 ± 0.0028 | -0.041 ± 0.02 | -0.03 ± 0.038 | -0.0205 ± 0.0078 | -0.0025 ± 0.0092 | 0.0475 ± 0.05 | -0.0645 ± 0.03 | 0.007 ± 0.038 | 0.0195 ± 0.049 | -0.0455 ± 0.17
12 | HDF3CGF:Collagen III | -0.02 ± 0.047 | -0.0505 ± 0.023 | -0.0895 ± 0.015 | -0.008 ± 0.092 | -0.087 ± 0.12 | -0.211 ± 0.12 | -0.004 ± 0.018 | -0.0385 ± 0.053 | -0.052 ± 0.05 | -0.0205 ± 0.033 | -0.0905 ± 0.012 | -0.0985 ± 0.029 | -0.0635 ± 0.069 | -0.055 ± 0.068 | -0.0105 ± 0.0092 | 0.0335 ± 0.03 | -0.049 ± 0.05 | 0.05 ± 0.014 | 0.0975 ± 0.0092 | 0.0145 ± 0.12

— the supplement of paper PMC10331698
